Assay results from patent EP4813990A1, “COMPOUND FOR TREATING CANCER” (INNOLAKE BIOPHARMA (HANGZHOU) CO., LTD., priority 2023, dated 2025).
“And” between values parts separate entries of the source, which are not always exact repeats. Identical values can stand only once. Like-named read-outs stand apart in the source and are kept apart here.

Legend:
[1] = tested on: MC38 mouse colon cancer xenograft; experiment: MC38 mouse colon cancer xenograft model, single agent and combination with anti-CTLA-4 antibody; format: in vivo, C57BL/6 mice; conditions: for Tumor Volume (mm^3) (Day 9): Day 9 after inoculation; for Tumor Volume (mm^3) (Day 9) / Tumor Volume (mm^3) / Tumor Volume (mm^3) (Day 15) / Tumor Weight / Tumor Volume (mm^3) (Day 12): Mean ± SEM; for Tumor Volume (mm^3) (Day 9) / Tumor Volume (mm^3) / Tumor Volume (mm^3) (Day 15) / Number of Animals with Tumor Volume > 250mm^3 / T/C (%) (Day 21) / Tumor Volume (mm^3) (Day 12) / TGI (%) (Day 21): n=8; for Tumor Volume (mm^3) (Day 15): Day 15 after inoculation; for Number of Animals with Tumor Volume > 250mm^3 / T/C (%) (Day 21) / TGI (%) (Day 21): Day 21; for Tumor Weight: end of experiment (D23); for Tumor Volume (mm^3) (Day 12): head prints Day 12; for TGI (%) (Day 21): tumor volume based; for TGITW (%): tumor weight based
Description: A total of 6 groups were set up in the experiment: vehicle control group, ILB-2109 low-dose and high-dose single-agent groups, Anti-CTLA-4 antibody single-agent group, and two dose groups of ILB-2109 and Anti-CTLA-4 in combination. Table 1. Experimental Administration Dosage and Grouping
Anti-CTLA-4 antibody was aseptically diluted to 0.5 mg/mL with DPBS and prepared immediately before administration.
ILB-2109 was formulated to 10 mg/mL with vehicle, 1% tween80 + 9% PEG400 + 90% ddwater. Specific preparation method: Prepare Vehicle 1 (10 mL Tween80, 90 mL PEG400, 900 mL ddwater), weigh 1120 mg of ILB-2109 and add into 112 mL of Vehicle 1, grind to basically uniform, then ultrasonicate for about 2-3 minutes to obtain a homogeneous suspension. An appropriate amount of the solution was diluted to 5 mg/mL with Vehicle 1 (1% Tween80 + 9% PEG400 + 90% ddwater) at a ratio of 1:1. The prepared solution was aliquoted into 5 mL EP tubes with 4 mL per tube and stored at 4°C. Prepared once a week.
48 female C57BL/6 mice were inoculated subaxillarily with 0.1 mL DPBS containing 2×10^5 MC38 cells. On the day of inoculation, mice were randomly divided into vehicle control group, ILB-2109 low-dose group and ILB-2109 high-dose group according to body weight, with 16 animals in each group. The day of inoculation was defined as D1. On D9 after inoculation, the average tumor volume of the vehicle control group reached about 64 mm^3. According to animal tumor volume and body weight, the original vehicle control group was divided into vehicle control group and Anti-CTLA-4 antibody single-agent group; the original ILB-2109 low-dose group was divided into ILB-2109 low-dose single-agent group and the combination group of low-dose ILB-2109 and anti-CTLA-4 antibody; the original ILB-2109 high-dose group was divided into ILB-2109 high-dose single-agent group and the combination group of high-dose ILB-2109 and Anti-CTLA-4 antibody. Administration was carried out for each group on the day of regrouping according to the set dosage.
Tumor volume was measured and body weight was weighed 3 times a week.
All animals were euthanized on D23 after inoculation, and tumor samples were collected and weighed.
Tumor volume was measured 3 times a week, and tumor growth inhibition TGITV (%) was calculated. The calculation formula of Tumor Volume (TV) is: TV = 1/2 × a × b^2 [formula] where a and b represent the major diameter and minor diameter of the tumor mass respectively. [formula]
Tumor weight of animals was measured during sample collection. The tumor growth inhibition was calculated according to the following formula: Tumor Growth Inhibition based on Tumor Weight TGITW(%) = (TWc−TWt)/TWc × 100% [formula] where TWt is the mean tumor weight of the treatment group, and TWc is the mean tumor weight of the vehicle control group.
All data were expressed as Mean ± SEM.
In this experiment, data on D21 after inoculation were used for statistical analysis by PRISM software. T test was used for comparison between two groups, and one-way ANOVA was used for comparison among three or more groups.

[2] = SD rat absorption test (pharmacokinetics); format: in vivo, SD rats; conditions: for bioavailability / AUC(0-t) / half-life / clearance / Vd / Cmax: Sprague-Dawley, rat, plasma; for bioavailability: oral 12 mg/kg; for half-life: read-out: elimination half-life (T1/2) (converted); for clearance: read-out: plasma clearance rate (CL); for Vd: read-out: steady-state apparent volume of distribution (Vdss); for Cmax: read-out: peak concentrations (Cmax); for ratio of AUC0-last on Day 7 to Day 1 / ratio of Cmax on Day 7 to Day 1: continuous oral 40 mg/kg for 7 days
Description: According to the Technical Guidelines for Non-clinical Pharmacokinetic Studies of Drugs and the results of in vitro metabolic species difference studies, liquid chromatography-tandem mass spectrometry (LC-MS/MS) was used in this pharmacokinetic study to fully verify the analytical method for the determination of ILB-2109 content in plasma (EDTA-K2 anticoagulation) of Sprague-Dawley rats and cynomolgus monkeys. The linear range of the method was 20.0~20000 nM. The precision, accuracy and other indicators of the method were confirmed to comply with the relevant regulations of biological sample detection.
This experiment studied the pharmacokinetic properties of ILB-2109 in female and male SD rats, including 1) 2 mg/kg single intravenous injection administration study; 2) 12, 40 and 120 mg/kg oral dose escalation study; 3) 40 mg/kg repeated oral administration BID for 7 consecutive days.

CYP2B6 = experiment: In vitro hepatocyte induction assay; format: in vitro ADME
Excerpt: (§1) In vitro hepatocyte induction assay was used to evaluate the effect of ILB-2109 on the enzyme activity and gene expression level of cytochrome P450 isoenzymes CYP1A2, CYP2B6 and CYP3A4.

CYP1A2 = experiment: In vitro hepatocyte induction assay; format: in vitro ADME
Excerpt: as §1

CYP3A4 = experiment: In vitro hepatocyte induction assay; format: in vitro ADME; conditions: for induction, gene expression level: hepatocytes
Excerpt: as §1

[3] = ILB-2109 100 mg/kg gavage twice a day
[4] = ILB-2109 50 mg/kg gavage twice a day
[5] = female SD rats, single intravenous injection 2 mg/kg
[6] = female SD rats, single oral 12 mg/kg
[7] = female SD rats, single oral 40 mg/kg
[8] = female SD rats, single oral 120 mg/kg
[9] = male SD rats, single intravenous injection 2 mg/kg
[10] = male SD rats, single oral 12 mg/kg
[11] = male SD rats, single oral 40 mg/kg
[12] = male SD rats, single oral 120 mg/kg
[13] = hepatocytes, 0.200, 2.00 or 20.0 µM

For `Cc1cc(-c2c(-c3ccccc3)nc(N)n3nc(CO)nc23)cc(C(F)(F)F)n1` [ILB-2109], the “Tumor Volume (mm^3) (Day 9)” value ([1]; ILB-2109 50 mg/kg gavage twice a day, 50 mg/kg) was 63±6 mm^3 and 63.65±6 mm^3, the “Tumor Volume (mm^3) (Day 9)” value [1, 3] was 58±4 mm^3 and the “Tumor Volume (mm^3)” value ([1]; Day 11 after inoculation, ILB-2109 50 mg/kg gavage twice a day) was 115±13 mm^3. The “Tumor Volume (mm^3)” value ([1]; Day 11 after inoculation, ILB-2109 100 mg/kg gavage twice a day) was 78±8 mm^3, the “Tumor Volume (mm^3)” value ([1]; Day 13 after inoculation, ILB-2109 50 mg/kg gavage twice a day) was 143±20 mm^3 and the “Tumor Volume (mm^3)” value ([1]; Day 13 after inoculation, ILB-2109 100 mg/kg gavage twice a day) was 105±11 mm^3. The “Tumor Volume (mm^3) (Day 15)” value [1, 4] was 225±34 mm^3, the “Tumor Volume (mm^3) (Day 15)” value ([1]; ILB-2109 100 mg/kg gavage twice a day, 100 mg/kg) was 257±18 mm^3 and 157±18 mm^3 and the “Tumor Volume (mm^3)” value ([1]; Day 17 after inoculation, ILB-2109 50 mg/kg gavage twice a day) was 269±41 mm^3. The “Tumor Volume (mm^3)” value ([1]; Day 17 after inoculation, ILB-2109 100 mg/kg gavage twice a day) was 207±25 mm^3, the “Number of Animals with Tumor Volume > 250mm^3” value [1, 4] was 8/8 and the “T/C (%) (Day 21)” value [1, 4] was 70.61%. The “Number of Animals with Tumor Volume > 250mm^3” value [1, 3] was 5/8, the “T/C (%) (Day 21)” value [1, 3] was 52.76% and the “Tumor Volume (mm^3)” value ([1]; Day 21 after inoculation, ILB-2109 50 mg/kg gavage twice a day) was 494±87 mm^3. For the same molecule, the “Tumor Volume (mm^3)” value ([1]; Day 21 after inoculation, ILB-2109 100 mg/kg gavage twice a day) was 369±54 mm^3, the “Tumor Weight” value [1, 4] was 1.7030 ± 0.1419 g and the “Tumor Weight” value [1, 3] was 0.6318 ± 0.1355 g. For the same molecule, the “Tumor Volume (mm^3) (Day 12)” value [1, 4] was 494±87 mm^3, the “Tumor Volume (mm^3) (Day 12)” value [1, 3] was 369±54 mm^3 and the “TGI (%) (Day 21)” value [1, 4] was 29.39%. For the same molecule, the “TGI (%) (Day 21)” value [1, 3] was 47.24%, the “TGITW (%)” value [1, 4] was 31% and the “TGITW (%)” value [1, 3] was 38%. The “tolerability in the PK study” value ([2]; SD rats, all dose regimens of the absorption test) was “tolerated the compound well without any abnormal manifestations”, the bioavailability ([2]; female SD rats) was 67.8% and the AUC(0-t) [2, 5] was 60.3 ± 5.18 µM·h. For the same molecule, the half-life [2, 5] was 5.71 ± 1.25 h, the clearance [2, 5] was 1.33 ± 0.135 mL/min/kg and the Vd [2, 5] was 0.526 ± 0.0558 L/kg. For the same molecule, the AUC(0-t) [2, 6] was 247 ± 22.1 µM·h, the Cmax [2, 6] was 33.7 ± 2.8 µM and the AUC(0-t) [2, 7] was 915 ± 169 µM·h. For the same molecule, the Cmax [2, 7] was 124 ± 17.5 µM, the AUC(0-t) [2, 8] was 1560 ± 205 µM·h and the Cmax [2, 8] was 155 ± 24.3 µM. The bioavailability ([2]; male SD rats) was 73%, the AUC(0-t) [2, 9] was 13.3 ± 2.26 µM·h and the half-life [2, 9] was 1.26 ± 0.361 h. The clearance [2, 9] was 6.3 ± 1.04 mL/min/kg, the Vd [2, 9] was 0.681 ± 0.0975 L/kg and the AUC(0-t) [2, 10] was 58.9 ± 19.2 µM·h. The Cmax [2, 10] was 23.8 ± 2.23 µM, the AUC(0-t) [2, 11] was 296 ± 54.1 µM·h and the Cmax [2, 11] was 63.3 ± 1.65 µM. For the same molecule, the AUC(0-t) [2, 12] was 792 ± 167 µM·h, the Cmax [2, 12] was 118 ± 19.8 µM and the peak time [2, 6] was 2.33 ± 1.53 h. The peak time [2, 7] was 3.33 ± 1.15 h, the peak time [2, 8] was 2.67 ± 1.15 h and the “dose proportionality of systemic exposure (AUC0-last) and Cmax” value ([2]; female and male rats, oral dose range 12 to 40 mg/kg) was “increased basically proportionally to the dose”. The “ratio of AUC0-last on Day 7 to Day 1” value ([2]; female rats) was 0.669, the “ratio of Cmax on Day 7 to Day 1” value ([2]; female rats) was 0.899 and the peak time [2, 10] was 0.667 ± 0.289 h. For the same molecule, the peak time [2, 11] was 1.33 ± 0.577 h, the peak time [2, 12] was 2.67 ± 1.15 h and the “ratio of AUC0-last on Day 7 to Day 1” value ([2]; male rats) was 0.584. The “ratio of Cmax on Day 7 to Day 1” value ([2]; male rats) was 0.673, the “ratio of AUC0-last between female and male rats” value ([2]; oral single dose 12 mg/kg) was 4.19 and the “ratio of AUC0-last between female and male rats” value ([2]; oral single dose 40 mg/kg) was 3.09. For the same molecule, the “ratio of AUC0-last between female and male rats” value ([2]; oral single dose 120 mg/kg) was 1.97, the “induction, gene expression level” value (CYP2B6; hepatocytes, 20.0 µM, Donor 1) was “inducer” and the “induction, enzyme activity” value (CYP2B6; [13]) was “not an inducer”. The “induction, gene expression level” value (CYP1A2; hepatocytes, 20.0 µM, Donor 1) was “inducer”, the “induction, enzyme activity” value (CYP1A2; [13]) was “not an inducer” and the “induction, gene expression level” value (CYP3A4; 2.00 µM, Donor 1 and Donor 3) was “inducer”. For the same molecule, the “induction, gene expression level” value (CYP3A4; 20.0 µM, Donor 1, 2 and 3) was “inducer” and the “induction, enzyme activity” value (CYP3A4; [13]) was “not an inducer”.
